Experiments:
[1] = tested on: Tobacco Budworm (Heliothis virescens); test: whole plant or invertebrate; type: in vivo; details: 144 h, eggs sprayed with 10 μl, 6 days
[2] = tested on: Boll Weevil (Anthonomus grandis); test: whole plant or invertebrate; type: in vivo; details: eggs sprayed with 20 μl, 3 to 5 days

O=S(=O)(NCc1ccnc2ccccc12)c1ccc(Br)s1 [Compound I-70, 5-bromo-thiophene-2-sulfonic acid (quinoline-4-ylmethyl)-amide] showed a mortality at 2500 ppm [1] of over 75% and a mortality at 2500 ppm [2] of over 50%.
